This passage reports remaining activity results from article PMC10578352, “Identification of a Protein Arginine Methyltransferase 7 (PRMT7)/Protein Arginine Methyltransferase 9 (PRMT9) Inhibitor” (Journal of Medicinal Chemistry, 2023).

This test has as its target T1, SET7/9/KMT7 (Homo sapiens, UniProt Q8WTS6).
T1 construct: the human recombinant SET7/9 (residues 2–366, C-terminus); GST (N); His (C); purchased Reaction Biology Corporation
T1 sequence (Q8WTS6 2-366): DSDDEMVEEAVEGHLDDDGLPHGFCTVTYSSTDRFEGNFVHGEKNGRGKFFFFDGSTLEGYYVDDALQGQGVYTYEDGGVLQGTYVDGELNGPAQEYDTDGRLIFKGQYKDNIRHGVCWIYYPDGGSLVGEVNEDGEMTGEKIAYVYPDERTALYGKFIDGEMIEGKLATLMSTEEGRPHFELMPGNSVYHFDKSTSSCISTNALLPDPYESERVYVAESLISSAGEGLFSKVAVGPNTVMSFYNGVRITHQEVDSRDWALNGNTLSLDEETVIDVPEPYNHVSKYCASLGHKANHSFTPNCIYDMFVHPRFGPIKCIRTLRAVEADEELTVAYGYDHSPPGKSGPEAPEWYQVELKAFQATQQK
Kind of test: HotSpot KMT activity assay, SET7/9. The class given is biochemical. The note with it: read-out: % SET7/9 residual activity. An excerpt:
; MW = 35.4 kDa; Genbank Accession # NM_018489), or the human recombinant EZH2-containing five-member polycomb repressive complex 2 (including EZH2 residues 2–746, AEBP2 2–517, EED 2–441, RbAp48 2–425, SUZ12 2–739; all full-length; with N-terminal Flag-tag on EED and N-terminal His-tag on all others; MW = 333.8 kDa; Genbank Accession # NM_001203247, NM_001114176, NM_003797, NM_005610, NM_015355), or the human recombinant G9a (residues 913–1193, C-terminus; with an N-terminal His-tag; MW = 34.6 kDa; Genbank Accession # NM_006709.3), or the human recombinant MLL1 complex (including MLL1 residues 3745–3969, C-terminus, WDR5 22–334, C-terminus, RbBP5 1–538, C-terminus, ASH2L 2–534, C-terminus, DPY-30 1–99, C-terminus; N-terminal His-tag on all subunits; MW = 212.0 kDa; Genbank Accession # NM_005933, NM_017588, NM_005057, NM_001105214, NM_0325742), or the human recombinant SET7/9 (residues 2–366, C-terminus; with a N-terminal GST-tag and a C-terminal His-tag; MW = 68.5 kDa; Genbank Accession # NM_030648), or the human recombinant SMYD3 (residues 2–428, C-terminus; C-terminal His-tag; MW = 50.1 kDa; Genbank Accession # NM_001167740), or the human recombinant SUV39H2 (residues 46–410, C-terminus; N-terminal fusion protein with a C-terminal His-tag; MW = 98.8 kDa; GenBank Accession No. NM_001193424), or the human recombinant DOT1L (residues 1–416; N-terminal GST-tag; MW = 80.0 kDa; Genbank Accession # NM_032482) was added to a solution of the proper substrate (oligo nucleosomes for ASH1L, MLL1 complex, and DOT1L, final concentration 0.05 mg/mL; core histone for EZH2 complex and SET7/9, final concentration 0.05 mg/mL; histone H3 for SUV39H2, final concentration 5 μM; histone H3 1–21 for G9a, final concentration 2.5 μM) in freshly prepared reaction buffer (50 mM Tris-HCl (pH 8.5), 5 mM MgCl2, 50 mM NaCl, 1 mM DTT, 1 mM PMSF, 1% DMSO) and gently mixed. […] After incubation for 60 min at 30 °C, the reaction mixture was delivered to filter paper for detection (as assessed by scintillation). […] Values obtained for each compound are mean ± SD determined for two separate experiments.

Take `COC(=O)c1cc(O)c2cc(NC(=O)NCCCNC(=N)NC[C@H]3O[C@@H](n4cnc5c(N)ncnc54)[C@H](O)[C@@H]3O)cc(C(F)(F)F)c2c1` [1j, Methyl 6-(3-(3-(3-(((2R,3S,4R,5R)-5-(6-Amino-9H-purin-9-yl)-3,4-dihydroxytetrahydrofuran-2-yl)methyl)guanidino)propyl)ureido)-4-hydroxy-8-(trifluoromethyl)-2-naphthoate]: the remaining activity at 10 µM (10 μM) came out at 86.3 ± 1.4%. Further, the remaining activity at 100 µM (100 μM) worked out at 53.33 ± 0.38%.
